From BindingDB's records for doi:10.1021/bi0500628 (Merck Research Laboratories, 2005)

How the values were obtained:
[1] = biological target: Insulin-like growth factor 1 receptor (Homo sapiens, UniProt P08069); assay: Homogeneous Time-Resolved Fluorescence (HTRF) Assay; settings: pH 7.4; 22 °C
Text: (§1) The assay uses purified enzyme interacting with biotinylated peptide substrate.HTRF is based on the proximity of europium cryptate (donor fluorophore)-labeled antiphosphotyrosine and streptavidin labeled with APC (allophycocyanin), which have been brought together by a binding reaction. When the two entities come into close proximity and upon excitation, energy transfer occurs and APC re-emits at 665 nm. Relative fluorescence units were read on a Discovery plate reader (Packard). The IC50 values for inhibitors were determined by a four-parameter sigmoidal curve fit.

Insulin receptor = Insulin receptor (Homo sapiens, UniProt P06213); assay: as above; settings: pH 7.4; 22 °C
Text: as §1

Insulin receptor, sequence (P06213 28-758 limits assumed): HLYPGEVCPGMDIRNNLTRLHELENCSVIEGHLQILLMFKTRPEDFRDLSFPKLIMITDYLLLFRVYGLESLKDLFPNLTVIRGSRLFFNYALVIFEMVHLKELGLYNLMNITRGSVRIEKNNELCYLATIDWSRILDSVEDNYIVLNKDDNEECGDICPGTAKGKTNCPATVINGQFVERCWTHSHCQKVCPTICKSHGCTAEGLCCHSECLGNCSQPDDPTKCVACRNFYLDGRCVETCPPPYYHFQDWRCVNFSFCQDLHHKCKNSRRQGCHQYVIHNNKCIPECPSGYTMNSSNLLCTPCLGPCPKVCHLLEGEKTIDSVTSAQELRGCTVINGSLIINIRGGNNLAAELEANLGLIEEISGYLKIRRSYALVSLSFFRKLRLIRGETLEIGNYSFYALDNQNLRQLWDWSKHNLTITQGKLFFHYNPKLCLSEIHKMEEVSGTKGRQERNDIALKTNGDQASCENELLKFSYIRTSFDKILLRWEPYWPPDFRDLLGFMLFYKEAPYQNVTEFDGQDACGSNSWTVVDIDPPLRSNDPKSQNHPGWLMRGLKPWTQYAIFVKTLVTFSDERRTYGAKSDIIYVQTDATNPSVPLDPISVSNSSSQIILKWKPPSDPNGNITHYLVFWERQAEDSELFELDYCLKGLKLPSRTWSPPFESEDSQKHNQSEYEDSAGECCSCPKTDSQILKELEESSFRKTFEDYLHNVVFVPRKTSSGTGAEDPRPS
Insulin receptor, sequence (P06213 763-1382 limits assumed): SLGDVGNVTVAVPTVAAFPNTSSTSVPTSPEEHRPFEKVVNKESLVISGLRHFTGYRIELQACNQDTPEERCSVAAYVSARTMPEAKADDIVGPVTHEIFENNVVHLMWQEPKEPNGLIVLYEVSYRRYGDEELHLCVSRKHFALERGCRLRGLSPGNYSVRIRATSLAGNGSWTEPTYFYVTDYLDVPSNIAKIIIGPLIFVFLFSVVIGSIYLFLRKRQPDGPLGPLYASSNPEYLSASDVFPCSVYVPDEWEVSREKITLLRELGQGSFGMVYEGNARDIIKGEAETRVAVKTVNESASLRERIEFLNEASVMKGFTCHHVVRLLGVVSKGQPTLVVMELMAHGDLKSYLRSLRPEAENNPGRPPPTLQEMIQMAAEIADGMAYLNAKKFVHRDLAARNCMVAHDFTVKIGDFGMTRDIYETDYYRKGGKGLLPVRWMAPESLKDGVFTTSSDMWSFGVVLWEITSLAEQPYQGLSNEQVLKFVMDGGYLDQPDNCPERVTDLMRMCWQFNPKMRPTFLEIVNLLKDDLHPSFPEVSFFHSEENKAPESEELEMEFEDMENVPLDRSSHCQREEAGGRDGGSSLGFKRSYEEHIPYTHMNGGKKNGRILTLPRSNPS
Insulin-like growth factor 1 receptor, sequence (P08069 31-736 limits assumed): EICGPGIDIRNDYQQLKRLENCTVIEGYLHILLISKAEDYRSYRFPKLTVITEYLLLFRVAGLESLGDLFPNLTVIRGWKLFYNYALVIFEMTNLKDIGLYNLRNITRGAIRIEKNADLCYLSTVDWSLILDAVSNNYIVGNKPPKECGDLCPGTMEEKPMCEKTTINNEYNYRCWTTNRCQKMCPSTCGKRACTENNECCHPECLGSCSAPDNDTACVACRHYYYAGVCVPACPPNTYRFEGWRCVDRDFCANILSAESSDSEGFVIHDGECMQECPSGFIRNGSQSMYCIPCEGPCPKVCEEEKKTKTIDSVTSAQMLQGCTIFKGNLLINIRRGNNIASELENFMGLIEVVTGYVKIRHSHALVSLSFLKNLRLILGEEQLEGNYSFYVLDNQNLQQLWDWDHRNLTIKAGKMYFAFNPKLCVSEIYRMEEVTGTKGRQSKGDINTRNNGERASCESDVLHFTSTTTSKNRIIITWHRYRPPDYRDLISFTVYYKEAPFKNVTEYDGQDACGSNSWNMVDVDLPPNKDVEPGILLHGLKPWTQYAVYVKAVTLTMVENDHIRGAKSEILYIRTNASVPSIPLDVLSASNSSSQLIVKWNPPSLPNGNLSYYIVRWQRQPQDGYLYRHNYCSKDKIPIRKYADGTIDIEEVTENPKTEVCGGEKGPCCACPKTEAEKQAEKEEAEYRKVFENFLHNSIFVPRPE
Insulin-like growth factor 1 receptor, sequence (P08069 741-1367 limits assumed): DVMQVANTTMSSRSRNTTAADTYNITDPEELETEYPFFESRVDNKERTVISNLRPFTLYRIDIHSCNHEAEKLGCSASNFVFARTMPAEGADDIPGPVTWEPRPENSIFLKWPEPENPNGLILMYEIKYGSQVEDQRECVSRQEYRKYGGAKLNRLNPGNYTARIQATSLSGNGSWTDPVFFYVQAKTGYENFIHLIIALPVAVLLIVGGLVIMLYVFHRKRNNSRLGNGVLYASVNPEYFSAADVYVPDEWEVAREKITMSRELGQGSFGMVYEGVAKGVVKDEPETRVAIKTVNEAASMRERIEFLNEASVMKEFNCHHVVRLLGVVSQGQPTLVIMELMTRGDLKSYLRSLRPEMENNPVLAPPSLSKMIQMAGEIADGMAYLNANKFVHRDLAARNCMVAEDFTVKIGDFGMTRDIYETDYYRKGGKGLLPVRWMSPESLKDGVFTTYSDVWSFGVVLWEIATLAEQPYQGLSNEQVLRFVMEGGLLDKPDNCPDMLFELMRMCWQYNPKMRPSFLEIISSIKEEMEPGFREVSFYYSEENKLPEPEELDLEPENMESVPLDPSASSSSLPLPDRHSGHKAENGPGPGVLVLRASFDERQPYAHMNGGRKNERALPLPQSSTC

| SMILES | IC50 [1] [µM] | IC50 (Insulin receptor) [µM] |
| --- | --- | --- |
| CCOC(=O)c1[nH]c(CO)c(C(=O)OCC)c1C [2,4-diethyl 5-(hydroxymethyl)-3-methyl-1H-pyrrole-2,4-dicarboxylate] | > 100 | > 100 |
| CCN(CC)C(=O)c1[nH]c(C=O)c(C(=O)N(CC)CC)c1C [N,N,N,N-Tetraethyl-5-formyl-3-methyl-1H-pyrrole-2,4-dicarboxamide] | > 100 | > 100 |
| COC(=O)[C@]1(O)C[C@@H]2O[C@@]1(C)n1c3ccccc3c3c4c(c5c6ccccc6n2c5c31)C(=O)NC4 [methyl (15R,16S,18S)-16-hydroxy-15-methyl-3-oxo-28-oxa-4,14,19-triazaoctacyclo[12.11.2.1^{15,18}.0^{2,6}.0^{7,27}.0^{8,13}.0^{19,26}.0^{20,25}]octacosa-1(26),2(6),7(27),8(13),9,11,20(25),21,23-nonaene-16-carboxylate] | 0.47 | 0.21 |
| CCOC(=O)c1c(CC)c(C(=O)OC(C)(C)C)n(C)c1C=O [2-tert-Butyl 4-Ethyl 3-Ethyl-5-formyl-1-methyl-1H-pyrrole-2,4-dicarboxylate] | 4.3 | 12 |

Further lines, results first:

| IC50 [1] [µM] | IC50 (Insulin receptor) [µM] | SMILES |
| --- | --- | --- |
| 2.7 | 12 | CCOC(=O)c1[nH]c(C=O)c(C(=O)OCC)c1C [2,4-diethyl 5-formyl-3-methyl-1H-pyrrole-2,4-dicarboxylate] |
| 1.1 | 5.4 | CCOC(=O)c1[nH]c(C=O)c(C(=O)OCC)c1CC [2,4-diethyl 3-ethyl-5-formyl-1H-pyrrole-2,4-dicarboxylate] |
| 2.6 | 17 | CCOC(=O)c1c(C=O)[nH]c(C(=O)NC(C)(C)C)c1CC [ethyl 5-(tert-butylcarbamoyl)-4-ethyl-2-formyl-1H-pyrrole-3-carboxylate] |
| 0.49 | 2 | CCOC(=O)c1c(C=O)[nH]c(C(=O)OC(C)(C)C)c1CC [2-tert-Butyl 4-Ethyl 3-Ethyl-5-formyl-1H-pyrrole-2,4-dicarboxylate] |
